According to patent US8552161B2, “Saponin compounds, methods of preparation thereof, use thereof and pharmaceutical compositions” (Uniwersytet W Bialymstoku, priority 2009, dated 2013):

Assays:
[1] = tested on: T-lymphoblastic leukemia cell line CEM; assay: Calcein AM cytotoxicity assay, CEM; assay type: cell-based; conditions: 72 h; for dose-dependent antiproliferative activity, number of viable cells (FIG. 1): CEM, increasing concentrations, Calcein AM; for IC50: Calcein AM assay, means ± SD, three independent experiments in triplicate
Experimental: (§1) Stock solutions (10 mmol/l) of the tested compounds were prepared by dissolving relevant quantity of the substance in DMSO. […] Calcein AM was obtained from Molecular Probes (Invitrogen Corporation, CA, USA).
(§2) All cell lines were cultured in DMEM medium (Sigma, Mo., USA). Medium was supplemented with 10% heat-inactivated fetal bovine serum, 2 mmol/l L-glutamine and 1% penicillin-streptomycin. The cell lines were maintained under standard cell culture conditions at 37° C. and 5% CO2 in a humid environment. Cells were subcultured twice or three times a week using the standard trypsinization procedure.
(§3) All cell lines were cultured in DMEM medium (Sigma, Mo., USA) supplemented with 10% fetal calf serum, 2 mM glutamine, 100 U/ml penicillin and 100 μg/ml streptomycin, at 37° C. in a fully humidified atmosphere containing 5% CO2. Suspensions of these lines (ca. 1.0×10^5 cells/ml) were placed in 96-well microtitre plates and after 3 h of stabilization the tested compounds were added in serially diluted concentrations. Saponins were dissolved in dimethylsulfoxide (DMSO) before addition to cultures. Control cultures were treated with DMSO alone. The final concentration of DMSO in the reaction mixtures never exceeded 0.6%. Four-fold dilutions of the intended test concentration were added at time zero in 20 μl aliquots to the microtitre plate wells. Usually, each test compound was evaluated at six 4-fold dilutions and in routine testing; the highest well concentration was 50 μM, although this varied in a few cases, depending on the test compound. After 72 h of culture, the cells were incubated with Calcein AM solution (Molecular Probes) for 1 h. The fluorescence of viable cells was quantified using a Fluoroscan Ascent instrument (Microsystems).

[2] = tested on: lung carcinoma cell line A549; assay: Calcein AM cytotoxicity assay, A549; assay type: cell-based, human; conditions: 72 h, means ± SD, three independent experiments in triplicate, read-out: IC50, A 549
Experimental: as §1, §2, §3

[3] = tested on: cervical carcinoma cell line HeLa; assay: Calcein AM cytotoxicity assay, HeLa; assay type: cell-based; conditions: 72 h, means ± SD, three independent experiments in triplicate
Experimental: as §1, §2, §3

[4] = tested on: osteosarcoma cell line HOS; assay: Calcein AM cytotoxicity assay, HOS; assay type: cell-based, human; conditions: 72 h, means ± SD, three independent experiments in triplicate
Experimental: (§4) Stock solutions (10 mmol/l) of the tested compounds were prepared by dissolving relevant quantity of the substance in DMSO. Dulbecco's modified Eagle's medium (DMEM, RPMI 1640, F-12 medium), fetal bovine serum (FBS), L-glutamine, penicillin, streptomycin were purchased from Sigma (MO, USA). Calcein AM was obtained from Molecular Probes (Invitrogen Corporation, CA, USA).
(§5) The screening cell lines (T-lymphoblastic leukaemia cell line CEM, breast carcinoma cell line MCF-7, cervical carcinoma cell line HeLa, human glioblastoma cell line T98, human malignant melanoma G-361, human osteogenic sarcoma cell line HOS, carcinomic human alveolar basal epithelial cells A549, human colon carcinoma cells HCT 116 and human fibroblasts BJ) were obtained from the American Type Culture Collection (Manassas, Va., USA). All cell lines were cultured in DMEM medium (Sigma, Mo., USA). Medium was supplemented with 10% heat-inactivated fetal bovine serum, 2 mmol/l L-glutamine and 1% penicillin-streptomycin. The cell lines were maintained under standard cell culture conditions at 37° C. and 5% CO2 in a humid environment. Cells were subcultured twice or three times a week using the standard trypsinization procedure.
(§6) Cytotoxic activities of the novel compounds, obtained according to this invention, were tested in vitro against following cancer cell lines: T-lymphoblastic leukemia cell line CEM; breast carcinoma cell line MCF7, lung carcinoma cell line A549, cervical carcinoma cell line HeLa, malignant melanoma cell line G-361, osteosarcoma cell line HOS, human glioblastoma cell line T98, human colon carcinoma cells HCT 116 and normal human fibroblasts BJ. […] Usually, each test compound was evaluated at six 4-fold dilutions and in routine testing; the highest well concentration was 50 μM, although this varied in a few cases, depending on the test compound. […] The fluorescence of viable cells was quantified using a Fluoroscan Ascent instrument (Microsystems). […]

[5] = tested on: human glioblastoma cell line T98; assay: Calcein AM cytotoxicity assay, T98; assay type: cell-based; conditions: 72 h, means ± SD, three independent experiments in triplicate
Experimental: as §4, §5
as §3, with “Cytotoxic activities of the novel compounds, obtained according to this invention, were tested in vitro against following cancer cell lines: T-lymphoblastic leukemia cell line CEM; breast carcinoma cell line MCF7, lung carcinoma cell line A549, cervical carcinoma cell line HeLa, malignant melanoma cell line G-361, osteosarcoma cell line HOS, human glioblastoma cell line T98, human colon carcinoma cells HCT 116 and normal human fibroblasts BJ. All” for “All”, “(Microsystems). The percentage of surviving cells in each well was calculated from the equation […]=(ODdrug exposed well/mean ODcontrol wells)×100%. The IC50 value, the drug concentration lethal to 50% of the tumour cells, was calculated from the obtained dose-response curves.” for “(Microsystems).”

[6] = tested on: breast carcinoma cell line MCF7; assay: Calcein AM cytotoxicity assay, MCF7; assay type: cell-based, human; conditions: for IC50: Calcein AM assay, 72 h, means ± SD, three independent experiments in triplicate; for dose-dependent antiproliferative activity, number of viable cells (FIG. 1): MCF7, 72 h, increasing concentrations, Calcein AM
Experimental: as §1, §2, §3

[7] = tested on: normal human fibroblasts BJ; assay: Calcein AM cytotoxicity assay, normal fibroblasts BJ; assay type: cell-based; conditions: 72 h, means ± SD, three independent experiments in triplicate
Experimental: as §1, §2, §3

[8] = tested on: malignant melanoma cell line G-361; assay: Calcein AM cytotoxicity assay, G-361; assay type: cell-based, human; conditions: 72 h, means ± SD, three independent experiments in triplicate
Experimental: as §1, §2, §3

[9] = tested on: human colon carcinoma cells HCT 116; assay: Calcein AM cytotoxicity assay, HCT 116; assay type: cell-based; conditions: 72 h, means ± SD, three independent experiments in triplicate, read-out: IC50, HCT116
Experimental: as §4, §5, §6

[10] = tested on: leukemia HL-60 cancer cells; conditions: cited from earlier work
[11] = tested on: human leukemia and pancreatic cancer cells; conditions: cited from earlier work
P388 = conditions: mice bearing P388, single administration of 0.01 mg/kg; cited from earlier work

| Compound | dose-dependent antiproliferative activity, number of viable cells (FIG. 1) [1] | IC50 [1] | IC50 [2] | IC50 [3] | IC50 [4] | IC50 [5] | IC50 [6] | dose-dependent antiproliferative activity, number of viable cells (FIG. 1) [6] | IC50 [7] | IC50 [8] | IC50 [9] | cytotoxicity relative to clinically applied anticancer agents (mitomycin C, adriamycin, cisplatin, camptothecin, taxol) ([10]; HL-60) | cytotoxic activity, HL-60 ([10]; NCI tests) | effect on mitochondria [11] | prolongation of life span (P388) |
| --- | --- | --- | --- | --- | --- | --- | --- | --- | --- | --- | --- | --- | --- | --- | --- |
| CCCCCCCCCCCCCC(=O)OC[C@@H](C)[C@@]1(O)[C@@H](O[C@@H]2OC[C@H](O)[C@H](O[C@@H]3OC[C@@H](O)[C@H](O)[C@H]3OC(=O)c3ccc(OC)cc3)[C@H]2OC(C)=O)C[C@H]2[C@@H]3CC=C4C[C@@H](O)CC[C@]4(C)[C@H]3CC[C@@]21C [Compound 9, (20R)-21-O-tetradecanoyl-20-methylpregn-5-ene-3β,16β,17α,21-tetraol 16-O-{2-O-(4-methoxybenzoyl)β-D-xylopyranosyl-(1-43)-2′-O-acetyl-α-L-arabinopyranoside}] | significantly reduce the number of living cells | 16 ± 5 nM | 720 ± 70 nM | 67 ± 2 nM | 2700 ± 600 nM | 28 ± 1 nM | 48 ± 22 nM | significantly reduce the number of living cells | 83 ± 5 nM | 30 ± 10 nM | 2800 ± 400 nM |  |  |  |  |
| CCCCCCCCCCCCCCCCCC(=O)OC[C@@H](C)[C@@]1(O)[C@@H](O[C@@H]2OC[C@H](O)[C@H](O[C@@H]3OC[C@@H](O)[C@H](O)[C@H]3OC(=O)c3ccc(OC)cc3)[C@H]2OC(C)=O)C[C@H]2[C@@H]3CC=C4C[C@@H](O)CC[C@]4(C)[C@H]3CC[C@@]21C [Compound 10, (20R)-21-O-Octadecanoyl-20-methylpregn-5-ene-3β,16β,17α,21-tetraol 16-O-{2-O-(4-methoxybenzoyl)-β-D-xylopyranosyl-(1→3)-2′-O-acetyl-α-L-arabinopyranoside}] | significantly reduce the number of living cells | 58 ± 1 nM | 550 ± 180 nM | 435 ± 64 nM |  | 210 ± 50 nM | 195 ± 21 nM | significantly reduce the number of living cells | 80 ± 4 nM | 300 ± 100 nM |  |  |  |  |  |
| CC(C)CCC(=O)[C@@H](C)[C@@]1(O)[C@@H](O)C[C@H]2[C@@H]3CC=C4C[C@@H](O)CC[C@]4(C)[C@H]3CC[C@@]21C [OSW-1 aglycone, reference compound] |  | > 50000 nM | > 50000 nM | > 50000 nM | > 50000 nM | > 50000 nM | > 50000 nM |  | > 50000 nM | > 50000 nM | > 50000 nM |  |  |  |  |
| COc1ccc(C(=O)O[C@H]2[C@H](O[C@@H]3[C@@H](OC(C)=O)[C@H](O[C@H]4C[C@H]5[C@@H]6CC=C7C[C@@H](O)CC[C@]7(C)[C@H]6CC[C@]5(C)[C@@]4(O)[C@H](C)C(=O)CCC(C)C)OC[C@@H]3O)OC[C@@H](O)[C@@H]2O)cc1 [OSW-1, reference compound] |  | 3 ± 0.03 nM | 27 ± 3 nM | 3.4 ± 0.3 nM | 8200 ± 400 nM | 70 ± 6 nM | 54.4 ± 0.2 nM |  | 0.2 nM | 1000 ± 100 nM | 8400 ± 500 nM | 10-100 times | nanomolar concentrations | damaged the mitochondrial membrane and cristae | 59% |
